Laboratory results published in US8431593B2, “Heteroaryl amide derivatives” (H. Lundbeck A/S, priority 2006, dated 2013).
Where two headings read alike, the source gives them in different places. Values belong to the compound of their own block, whether it stands above or below them.

Target: T1, P2X7 receptor (Homo sapiens, UniProt Q99572)
T1 construct: host or cells: SH-SY5Y
T1 sequence (Q99572 1-595): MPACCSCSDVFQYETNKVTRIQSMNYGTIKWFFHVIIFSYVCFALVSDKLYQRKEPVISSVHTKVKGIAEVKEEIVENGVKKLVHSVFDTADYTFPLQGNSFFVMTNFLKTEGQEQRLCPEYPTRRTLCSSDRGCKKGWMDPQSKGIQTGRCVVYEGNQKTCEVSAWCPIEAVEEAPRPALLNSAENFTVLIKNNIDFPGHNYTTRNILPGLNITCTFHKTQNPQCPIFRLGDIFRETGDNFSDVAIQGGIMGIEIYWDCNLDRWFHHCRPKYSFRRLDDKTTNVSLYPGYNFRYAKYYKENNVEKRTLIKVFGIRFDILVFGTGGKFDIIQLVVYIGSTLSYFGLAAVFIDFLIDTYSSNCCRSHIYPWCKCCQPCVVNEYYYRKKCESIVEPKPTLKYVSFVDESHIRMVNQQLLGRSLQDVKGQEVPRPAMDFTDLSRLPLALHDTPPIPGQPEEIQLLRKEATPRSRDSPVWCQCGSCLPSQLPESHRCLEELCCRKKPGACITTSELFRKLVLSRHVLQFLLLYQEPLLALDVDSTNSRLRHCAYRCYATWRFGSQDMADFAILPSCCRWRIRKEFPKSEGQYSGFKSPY
Assay: P2X7 calcium mobilization assay, high throughput, antagonist activity (Example 4A)
Type: cell-based
Procedure, shortened: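 FLIPR^TETRA calcium read-out: maximum RFU per well minus average no-agonist control, with agonist wells giving the average positive maximum. Cells seeded at 100,000/well one day ahead, dye-loaded 1 h, rinsed, then exposed to compound for 1 h at room temperature.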

[1] = 50% decrease in the fluorescence response of cells exposed to 80 μM of 2′(3′)-O-(4-benzoyl-benzoyl)adenosine 5′-triphosphate, determined as in Example 4A, read-out: IC50
[2] = 50% decrease in the fluorescence response of cells exposed to 80 μM 2′(3′)-O-(4-benzoyl-benzoyl)adenosine 5′-triphosphate, Example 4A, read-out: IC50
[3] = fluorescence response of cells exposed to 80 μM 2′(3′)-O-(4-benzoyl-benzoyl)adenosine 5′-triphosphate, Example 4A, read-out: IC50

SMILES: CC(C)N1CCN(C(=O)Cc2cn3c(C(=O)NCC4(c5ccc(Cl)cc5)CCCCC4)cccc3n2)CC1 [Compound 886, N-{[1-(4-chlorophenyl)cyclohexyl]methyl}-2-[2-(4-isopropylpiperazin-1-yl)-2-oxoethyl] imidazo[1,2-a] pyridine-5-carboxamide]
IC50 [1]: < 2000 nM

SMILES: CC(C)CC(CNC(=O)c1cccc2nc(CC(=O)NC(C)C(N)=O)cn12)c1ccccc1 (stereo not shown) [Compound 235, 2-{2-[(2-amino-1-methyl-2-oxoethyl)amino]-2-oxoethyl}-N-(4-methyl-2-phenylpentyl)imidazo [1,2-a]pyridine-5-carboxamide]
IC50 [3]: < 2000 nM

SMILES: C[C@@H]1COC[C@H](C)N1Cc1cn2c(C(=O)NCC34CC5CC(CC(C5)C3)C4)cccc2n1 (relative stereo) [Compound 343, rel-N-(adamantan-l-ylmethy)-2-{[(3R, 5S)-3,5-dimethylmorpholin-4-yl]methyl}imidazo[1,2-a]pyridine-5-carboxamide]
IC50 [3]: < 2000 nM

SMILES: CCCN(C)C(=O)Cc1cn2c(C(=O)NCC34CC5CC(CC(C5)C3)C4)cccc2n1 [Compound 186, N-(adamantan-1-ylmethyl)-2-{2-[methyl(propyl)amino]-2-oxoethyl}imidazo[1,2-a]pyridine-5-carboxamide]
IC50 (SH-SY5Y cells, 50% decrease in fluorescence response to 80 μM BzATP, read-out: IC50): < 2000 nM

SMILES: O=C(CC12CC3CC(CC(C3)C1)C2)Nc1cccc2nc(C(=O)N3CCC(O)CC3)cn12 [Compound 426, 2-adamantan-1-yl-N-{2-[(4-hydroxypiperidin-1-yl)carbonyl]imidazo [1,2-a]pyridin-5-yl}acetamide]
IC50 [2]: < 2000 nM

SMILES: CCOC(=O)c1cn2c(C(=O)NCC34CC5CC(CC(C5)C3)C4)cccc2n1 [Compound 2, ethyl 5-[(adamantan-1-ylmethyl)carbamoyl]imi-dazo[1,2-a]pyridine-2-carboxylate]
IC50: < 2000 nM

Continued, values first:

IC50 [1]: < 2000 nM
SMILES: N[C@@H]1CCN(Cc2cn3c(C(=O)NCC4(c5ccc(C(F)(F)F)cc5)CCCCC4)cccc3n2)C1 [Compound 822, 2-{[(3R)-3-aminopyrrolidin-1-yl]methyl}-N-({1-[4-(trifluoromethyl)phenyl]cyclohexyl}methyl) imidazo[1,2-a] pyridine-5-carboxamide]

IC50 [2]: < 2000 nM
SMILES: CN(C)CCCN(C(=O)c1cn2c(C(=O)NCC34CC5CC(CC(C5)C3)C4)cccc2n1)C1CCNCC1 [Compound 610, 5-N-(adamantan-1-ylmethyl)-2-N-[3-(dimethylamino)propyl]-2-N-piperidin-4-ylimidazo[1,2-a]pyridine-2,5-dicarboxamide]

IC50 [1]: < 2000 nM
SMILES: CC(C)CC(CNC(=O)c1cccc2nc(CCC(=O)O)cn12)c1ccc(C(F)(F)F)cc1 (stereo not shown) [Compound 986, 3-[5-({4-methyl-2-[4-(trifluoromethyl)phenyl]pentyl}carbamoyl)imidazo[1,2-a]pyridin-2-yl] propanoic acid]

IC50 [1]: < 2000 nM
SMILES: O=C(Cc1cn2c(C(=O)NCC3(c4ccc(Cl)cc4)CCCCC3)cccc2n1)NCC1CC1 [Compound 862, N-{[1-(4-chlorophenyl)cyclohexyl]methyl}-2-{2-[(cyclopropylmethyl)amino]-2-oxoethyl} imidazo[1,2-a] pyridine-5-carboxamide]

IC50 [1]: < 2000 nM
SMILES: CC(O)CNC(=O)Cc1cn2c(C(=O)NCC3(c4ccc(Cl)cc4)CCCCC3)cccc2n1 (stereo not shown) [Compound 858, N-{[1-(4-chlorophenyl)cyclohexyl]methyl}-2-{2-[(2-hydroxypropyl)amino]-2-oxoethyl} imidazo[1,2-a]pyridine-5-carboxamide]

IC50 [1]: < 2000 nM
SMILES: CCCC(CNC(=O)c1cccc2nc(CC(=O)N3CCC[C@@H](N)C3)cn12)c1ccc(Cl)cc1 (stereo partly drawn) [Compound 929, 2-{2-[(3R)-3-aminopiperidin-1-yl]-2-oxoethyl}-N-[2-(4-chlorophenyl)pentyl] imidazo[1,2-a] pyridine-5-carboxamide]

IC50 [2]: < 2000 nM
SMILES: CC(C)[C@@H]1CNCCN1C(=O)Cc1cn2c(C(=O)NC[C@@H]3CC[C@@H]4C[C@H]3C4(C)C)cccc2n1 [Compound 570, N-{[(1R,2R,5R)-6,6-dimethylbicyclo[3.1.1]hept-2-yl]methyl}-2-{2-[(2R)-2-isopropylpiperazin-1-yl]-2-oxoethyl}imidazo[1,2-a]pyridine-5-carboxamide]
